Assay results reported in the OPERA property sets (Mansouri et al. 2018).
In brackets after ≈: the same amount, converted by molar mass.

Row | SMILES | logP | further results
1 | CCS(=O)(=O)c1nc2ccccn2c1S(=O)(=O)NC(=O)Nc1nc(OC)cc(OC)n1 | – | solubility (pH 5.0, 20 °C): 0.0381 mM (≈ 17.9 µg/mL)
2 | COC(=O)c1c(C(F)F)nc(C(F)(F)F)c(C2=NCCS2)c1CC(C)C | 3.89 | –
3 | CCNc1nc(Cl)nc(NC(C)(C)C)n1 | 3.21 | solubility (pH 7.0, 20 °C): 0.0396 mM (≈ 9.09 µg/mL)
4 | CCOP(=S)(Oc1cnc(C(C)(C)C)nc1)OC(C)C (stereo unspecified) | – | solubility (pH 7.0, 20 °C): 0.0173 mM (≈ 5.5 µg/mL)
5 | C#CCOc1cc(-n2nc(C(C)(C)C)oc2=O)c(Cl)cc1Cl | 3.95 | solubility (20 °C): 0.00108 mM (≈ 0.37 µg/mL)
6 | CCc1cccc(C)c1N(COC(C)C)C(=O)CCl | 3.5 | –
7 | CCCOC(=O)NCCCN(C)C | – | solubility (pH 7.0, 20 °C): 4780 mM (≈ 900000 µg/mL)
8 | O=C(NC(=O)c1c(F)cccc1F)Nc1ccc(Cl)c(Oc2ncc(C(F)(F)F)cc2Cl)c1 | – | solubility (25 °C): < 3.95e-05 mM
9 | O=[n+]1[n-]c(-n2ccnc2)nc2ccc(Cl)cc21 | 2.04 | solubility (20 °C): 0.137 mM (≈ 34 µg/mL)
10 | CC(C)(C)C(O)(CCc1ccc(Cl)cc1)Cn1cncn1 (stereo unspecified) | 3.7 | –
11 | COc1nn(CSP(=S)(OC)OC)c(=O)s1 | 2.2 | –
12 | O=S(=O)(c1ccc(Cl)cc1)c1cc(Cl)c(Cl)cc1Cl | 4.61 | solubility (20 °C): 0.000219 mM (≈ 0.078 µg/mL)
